Measured values from article PMC10817512, “OSMAC-Based Discovery and Biosynthetic Gene Clusters Analysis of Secondary Metabolites from Marine-Derived Streptomyces globisporus SCSIO LCY30” (Marine Drugs, 2023).
pIC50: −log10 of the molar value. ≈ marks a conversion by molar mass, not a printed value. Where two headings read alike, the source gives them in different places.

Legend:
Bacillus subtilis = tested on: Bacillus subtilis; parameters: method as in PMID 18396903; settings: ref [35]; cited from earlier work
[1] = tested on: colorectal cancer cell line SW480; test: Cell growth inhibitory (cytotoxic) activity assay; type: cell-based, human; settings: Homo sapiens; SW480 (colorectal cancer)
Source text: (§1) The cell growth inhibitory activities of compounds 1–3 against fourteen different human cell lines (human liver cell line LX-2; hepatocellular cancer line HEPG2; human intestinal epithelial cell line NCM460; colorectal cancer cell lines HCT116 and SW480; normal human breast cell line MCF-10A; breast cancer cell line MCF7; triple-negative breast cancer cell lines MDA-MB-231, MDA-MB-468, and Bt-549; human umbilical vein endothelial cell line; lung cancer cell line A549; cervical cancer cell line Hela; and cholangiocarcinoma cell line RBE) were tested according to the previously published methods. SPSS software version 22.0 was used to test the IC50 values. Cisplatin and adriamycin were used as positive control agents, and all the experiments were carried out in triplicate.

[2] = tested on: cholangiocarcinoma cell line RBE; test: Cell growth inhibitory (cytotoxic) activity assay; type: cell-based, human; settings: Homo sapiens
Source text: as §1

[3] = tested on: triple-negative breast cancer cell line MDA-MB-468; test: Cell growth inhibitory (cytotoxic) activity assay; type: cell-based, human; settings: Homo sapiens; MDA-MB-468 (TNBC)
Source text: as §1

[4] = tested on: hepatocellular cancer line HEPG2; test: Cell growth inhibitory (cytotoxic) activity assay; type: cell-based, human; settings: Homo sapiens
Source text: as §1

[5] = tested on: triple-negative breast cancer cell line Bt-549; test: Cell growth inhibitory (cytotoxic) activity assay; type: cell-based, human; settings: Homo sapiens; Bt-549 (TNBC)
Source text: as §1

[6] = tested on: lung cancer cell line A549; test: Cell growth inhibitory (cytotoxic) activity assay; type: cell-based, human; settings: Homo sapiens
Source text: as §1

[7] = tested on: colorectal cancer cell line HCT116; test: Cell growth inhibitory (cytotoxic) activity assay; type: cell-based, human; settings: Homo sapiens, HCT-116
Source text: as §1

[8] = tested on: triple-negative breast cancer cell line MDA-MB-231; test: Cell growth inhibitory (cytotoxic) activity assay; type: cell-based, human; settings: Homo sapiens; MDA-MB-231 (TNBC)
Source text: as §1

[9] = tested on: cervical cancer cell line Hela; test: Cell growth inhibitory (cytotoxic) activity assay; type: cell-based, human; settings: Homo sapiens
Source text: as §1

[10] = tested on: Enterococcus gallinarum 5F52C; test: Antibacterial MIC, CLSI microdilution; type: cell-based; settings: Enterococcus gallinarum 5F52C; 37 °C, 16–18 h; read-out: MIC
Procedure: (§2) An antibacterial activity test of compounds 1–3 was conducted according to a standard protocol provided by the Clinical and Laboratory Standards Institute (CLSI). Sixteen bacterial strains were used, including Staphylococcus aureus ATCC 29213, Staphylococcus aureus 16339, Staphylococcus aureus 1862, Staphylococcus aureus 3090, Staphylococcus aureus 991, Staphylococcus aureus 669, Staphylococcus aureus 745324, Staphylococcus aureus 16162, Staphylococcus aureus (cfr) GDE4P037P, Enterococcus faecalis ATCC 29212, Enterococcus faecalis 36950, Micrococcus luteus ML01, MRSA, Bacillus subtilis BS01, Enterococcus gallinarum 5F52C, and Enterococcus faecium 36711. Compounds 1–3 were dissolved in DMSO at a concentration of 3.2 mg/mL, and vancomycin and ampicilin were used as antibacterial control agents. […] All the assays were carried out in triplicate.

[11] = tested on: Enterococcus faecalis ATCC 29212; test: Antibacterial MIC, CLSI microdilution; type: cell-based; settings: ATCC29212; Enterococcus faecalis ATCC 29212; 37 °C, 16–18 h; read-out: MIC
Procedure: as §2

[12] = tested on: Staphylococcus aureus (cfr) GDE4P037P; test: Antibacterial MIC, CLSI microdilution; type: cell-based; settings: Staphylococcus aureus (cfr) GDE4P037P; 37 °C, 16–18 h; read-out: MIC
Procedure: as §2

[13] = tested on: Enterococcus faecium 36711; test: Antibacterial MIC, CLSI microdilution; type: cell-based; settings: Enterococcus faecium 36711; 37 °C, 16–18 h; read-out: MIC
Procedure: as §2

[14] = tested on: Staphylococcus aureus 991; test: Antibacterial MIC, CLSI microdilution; type: cell-based; settings: Staphylococcus aureus 991; 37 °C, 16–18 h; read-out: MIC
Procedure: as §2

[15] = tested on: Enterococcus faecalis 36950; test: Antibacterial MIC, CLSI microdilution; type: cell-based; settings: Enterococcus faecalis 36950; 37 °C, 16–18 h; read-out: MIC
Procedure: as §2

[16] = tested on: Staphylococcus aureus 669; test: Antibacterial MIC, CLSI microdilution; type: cell-based; settings: Staphylococcus aureus 669; 37 °C, 16–18 h; read-out: MIC
Procedure: as §2

[17] = tested on: Staphylococcus aureus 16339; test: Antibacterial MIC, CLSI microdilution; type: cell-based; settings: Staphylococcus aureus 16339; 37 °C, 16–18 h; read-out: MIC
Procedure: as §2

[18] = tested on: Staphylococcus aureus ATCC 29213; test: Antibacterial MIC, CLSI microdilution; type: cell-based; settings: ATCC29213; Staphylococcus aureus ATCC 29213; 37 °C, 16–18 h; read-out: MIC
Procedure: as §2

[19] = tested on: Staphylococcus aureus 745324; test: Antibacterial MIC, CLSI microdilution; type: cell-based; settings: Staphylococcus aureus 745324; 37 °C, 16–18 h; read-out: MIC
Procedure: as §2

Bacillus subtilis BS01 = test: Antibacterial MIC, CLSI microdilution; type: cell-based; settings: Bacillus subtilis BS01; 37 °C, 16–18 h; read-out: MIC
Procedure: as §2

[20] = tested on: Staphylococcus aureus 16162; test: Antibacterial MIC, CLSI microdilution; type: cell-based; settings: Staphylococcus aureus 16162; 37 °C, 16–18 h; read-out: MIC
Procedure: as §2

Micrococcus luteus ML01 = test: Antibacterial MIC, CLSI microdilution; type: cell-based; settings: 37 °C, 16–18 h
Procedure: as §2

[21] = tested on: Staphylococcus aureus 3090; test: Antibacterial MIC, CLSI microdilution; type: cell-based; settings: Staphylococcus aureus 3090; 37 °C, 16–18 h; read-out: MIC
Procedure: as §2

[22] = tested on: Staphylococcus aureus 1862; test: Antibacterial MIC, CLSI microdilution; type: cell-based; settings: Staphylococcus aureus 1862; 37 °C, 16–18 h; read-out: MIC
Procedure: as §2

[23] = tested on: fourteen human cell lines; test: Cytotoxicity, span over the whole cell panel; type: cell-based; settings: span of the IC50 values over all fourteen cell lines, read-out: IC50 values, range against fourteen human cell lines
Source text: as §1

[24] = tested on: Staphylococcus simulans AKA1; test: Antibacterial MIC, CLSI microdilution; type: cell-based; settings: Staphylococcus simulans AKA1; 37 °C, 16–18 h; read-out: MIC
[25] = tested on: normal human breast cell line MCF-10A; test: Cell growth inhibitory (cytotoxic) activity assay; type: cell-based; settings: MCF-10A (normal human breast cell line)
Source text: as §1

[26] = tested on: human umbilical vein endothelial cell line HUVEC; test: Cell growth inhibitory (cytotoxic) activity assay; type: cell-based
Source text: as §1

[27] = tested on: human liver cell line LX-2; test: Cell growth inhibitory (cytotoxic) activity assay; type: cell-based; settings: LX-2 (human liver cell line)
Source text: as §1

[28] = tested on: human intestinal epithelial cell line NCM460; test: Cell growth inhibitory (cytotoxic) activity assay; type: cell-based; settings: Homo sapiens; NCM460 (normal intestinal epithelial cell line)
Source text: as §1

MRSA = test: Antibacterial MIC, CLSI microdilution; type: cell-based, Staphylococcus aureus; settings: Staphylococcus aureus, 37 °C, 16–18 h, read-out: MIC
Procedure: as §2

[29] = tested on: TNBC cell lines MDA-MB-231, MDA-MB-468, and Bt-549; test: Cytotoxicity, span over TNBC cell lines; type: cell-based; settings: Homo sapiens; span over MDA-MB-231, MDA-MB-468 and Bt-549; read-out: IC50 values, range against TNBC cell lines
Source text: as §1

[30] = tested on: breast cancer cell line MCF7; test: Cell growth inhibitory (cytotoxic) activity assay; type: cell-based, human; settings: Homo sapiens
Source text: SPSS software version 22.0 was used to test the IC50 values.

[31] = Micrococcus luteus, ML01, Micrococcus luteus ML01, read-out: MIC

Compound	MIC [10]	MIC [11]	MIC [12]	MIC [13]	MIC [14]	MIC [15]	MIC [16]	MIC [17]	MIC [18]	MIC [19]	MIC (Bacillus subtilis BS01)	MIC [20]	MIC (Micrococcus luteus ML01; [31])	MIC [21]	MIC [22]	MIC [24]	MIC (MRSA)	other results
streptophenazine H	–	–	–	–	–	–	–	–	–	–	–	–	–	–	–	–	–	MIC (Bacillus subtilis): 15.6 µg/mL
Cc1cc(O)c2c3c(c(O)c(C4CC(N)C(O)C(C)O4)c2c1)C(=O)c1c(O)cccc1C3=O (stereo not shown) [Mayamycin B (2), mayamycin B]	32 µg/mL (≈ 71.2 µM)	16 µg/mL (≈ 35.6 µM)	8 µg/mL (≈ 17.8 µM)	32 µg/mL (≈ 71.2 µM)	16 µg/mL (≈ 35.6 µM)	8 µg/mL (≈ 17.8 µM)	16 µg/mL (≈ 35.6 µM)	16 µg/mL (≈ 35.6 µM)	16 µg/mL (≈ 35.6 µM)	8 µg/mL (≈ 17.8 µM)	8 µg/mL (≈ 17.8 µM)	16 µg/mL (≈ 35.6 µM)	1 to 2 µg/mL (≈ 2.22 to 4.45 µM)	8 µg/mL (≈ 17.8 µM)	16 µg/mL (≈ 35.6 µM)	64 µg/mL (≈ 142 µM)	8 µg/mL (≈ 17.8 µM)	pIC50 [1]: 5.54; pIC50 [2]: 5.39; pIC50 [3]: 5.22; pIC50 [4]: 5.22; pIC50 [5]: 5.41; pIC50 [6]: 5.29; pIC50 [7]: 5.69; pIC50 [8]: 5.52; pIC50 [9]: 5.55; MIC (Micrococcus luteus ML01; Micrococcus luteus ML01): 1 µg/mL (≈ 2.22 µM); pIC50 [23]: 5.15 to 5.69; pIC50 [25]: 5.28; pIC50 [26]: 5.36; pIC50 [27]: 5.27; pIC50 [28]: 5.15; pIC50 [29]: 5.22 to 5.52; pIC50 [30]: 5.38
CC1(C)S[C@@H]2[C@H](NC(=O)[C@H](N)c3ccccc3)C(=O)N2[C@H]1C(=O)O [Ampicillin, reference compound]	8 µg/mL (≈ 22.9 µM)	1 µg/mL (≈ 2.86 µM)	16 µg/mL (≈ 45.8 µM)	> 64 µg/mL	4 µg/mL (≈ 11.4 µM)	> 64 µg/mL	8 µg/mL (≈ 22.9 µM)	64 µg/mL (≈ 183 µM)	1 µg/mL (≈ 2.86 µM)	4 µg/mL (≈ 11.4 µM)	0.13 µg/mL (≈ 0.372 µM)	16 µg/mL (≈ 45.8 µM)	0.13 µg/mL (≈ 0.372 µM)	16 µg/mL (≈ 45.8 µM)	4 µg/mL (≈ 11.4 µM)	> 64 µg/mL	32 µg/mL (≈ 91.6 µM)	–
